Like-named read-outs stand apart in the source and are kept apart here.
How the values were obtained:
C. albicans ATCC 90028 = assay: Antifungal MIC assay (broth microdilution in YNB); assay type: cell-based, Candida albicans; settings: for MIC Candida albicans ATCC 90028: Table S1; for MIC: read-out: MIC C. albicans ATCC 90028
Description: (§1) Yeast strains: Candida albicans (ATCC 90028, NCCLS 11), Cryptococcus neoformans (ATCC 208821, H99 type strain), Candida tropicalis (ATCC 750, type strain), Candida glabrata (ATCC 90030, NCCLS 84) and Cryptococcus deuterogattii (ATCC 32609, type strain) were obtained from the American Type Culture Collection (ATCC). Cryptococcus deuterogattii (CBS 7750), Candida auris (CBS 10913) and Candida auris (CBS 12373) were obtained from the CBS‐KNAW culture collection. The strains were maintained on glycerol/YPD (yeast extract‐peptone dextrose) broth (20:80 v/v) at −80 °C.
(§2) Antifungal minimum inhibitory concentration (MIC) assay: The cobalt complexes and antifungal control compounds were serially diluted in 50 μL of Yeast Nitrogen Broth (YNB; BD, Cat No. 233520 supplemented with 2 % glucose and 10 mM ammonium sulfate) two‐fold across the wells of non‐binding surface (NBS) 96‐well plates (Corning; Cat. No. 3641). Plates were set up in quadruplicate for each strain tested, and two biological replicates were conducted on separate assay days.
(§3) Yeast strains were cultured from glycerol onto YPD (Becton Dickinson 242720) agar at 30 °C for 72 h. For each strain, a minimum of five single colonies were taken from the agar plate and dissolved in sterile water and adjusted to form a yeast suspension of 1×10^6 to 5×10^6 CFU mL^−1 (as determined by OD530). The suspension was subsequently diluted into YNB media, and added to each well of the compound containing plates, giving a final cell density of 2.5×10^3 CFU mL^−1 and a total volume of 100 μL. Plates were covered and incubated at 35 °C for 36 h without shaking.
(§4) Growth inhibition of all strains was determined visually where the MIC was recorded as the lowest compound concentration with no visible growth. Fluconazole (Sigma F8929), ketoconazole (Sigma K1003) and micafungin (Sigma SML2288) were used as internal positive inhibitor controls for every strain tested.

C. auris CBS 10913 = assay: Antifungal MIC assay (broth microdilution in YNB); assay type: cell-based, Candida auris; settings: for MIC Candida auris CBS 10913: Table S1
Description: as §1, §2, §3, §4

C. auris CBS 12373 = assay: Antifungal MIC assay (broth microdilution in YNB); assay type: cell-based, Candida auris; settings: for MIC Candida auris CBS 12373: Table S1; for MIC: range of MICs, n=8, 35 °C, 36 h, visual, read-out: MIC C. auris CBS 12373
Description: as §1, §2, §3, §4

C. glabrata ATCC 90030 = assay: Antifungal MIC assay (broth microdilution in YNB); assay type: cell-based, Candida glabrata; settings: for MIC Candida glabrata ATCC 90030: Table S1; for MIC: range of MICs, n=8, 35 °C, 36 h, visual, read-out: MIC C. glabrata ATCC 90030
Description: as §1, §2, §3, §4

[1] = test system: C. deuterogattii ATCC 32609; assay: Antifungal MIC assay (broth microdilution in YNB); assay type: cell-based, Cryptococcus deuterogattii; settings: for MIC Cryptococcus deuterogattii ATCC 32609: Table S1; for MIC: read-out: MIC C. deuterogattii ATCC 32609
Description: as §1, §2, §3, §4

[2] = test system: C. deuterogattii CBS 7750; assay: Antifungal MIC assay (broth microdilution in YNB); assay type: cell-based, Cryptococcus deuterogattii; settings: for MIC Cryptococcus deuterogattii CBS 7750: Table S1; for MIC: range of MICs, n=8, 35 °C, 36 h, visual, read-out: MIC C. deuterogattii CBS 7750
Description: as §1, §2, §3, §4

[3] = test system: Acinetobacter baumannii ATCC 19606; assay: CO-ADD bacterial broth microdilution MIC assay; assay type: cell-based; settings: CAMHB, 37 °C, 18 h, ≥ 80% inhibition
Experimental: (§5) CO-ADD High Throughput Screening
(§6) Bacterial broth microdilution minimum inhibitory concentration (MIC) assay Bacterial strains were cultured in Cation-adjusted Mueller Hinton broth (CAMHB; Bacto Laboratories 212322) at 37 °C overnight. A sample of each culture was then diluted 40-fold in fresh CAMHB and incubated at 37 °C for 1.5-3 h. The resultant mid-log phase cultures were diluted with CAMHB (CFU/mL measured by OD600), then added to each well of the compound-containing plates (384-well non-binding surface (NBS) plates; Corning CLS3640), giving a cell density of 5 × 10^5 CFU/mL and a total volume of 50 µL. Plates were covered and incubated at 37 °C for 18 h without shaking. Inhibition of bacterial growth was determined measuring absorbance at 600 nm (OD600), using media only as negative control and bacteria without inhibitors as positive control. MIC values were determined as the lowest concentration at which the growth was inhibited at ≥ 80%. Colistin sulfate (Sigma C4461) and vancomycin HCl (Sigma 861987) were used as positive inhibitor controls on each plate for Gram-negative and Gram-positive bacteria, respectively.
(§7) Figure S1. 1H NMR (400 MHz) of [Co(ATS)(DMAP)2]NO3 (3) in DMSO-d6.
(§8) (1 picture or pasted object on this page, not shown here)

[4] = test system: Escherichia coli ATCC 25922; assay: CO-ADD bacterial broth microdilution MIC assay; assay type: cell-based; settings: CAMHB, 37 °C, 18 h, ≥ 80% inhibition
Experimental: as §5, §6, §7, §8

[5] = test system: Pseudomonas aeruginosa ATCC 27853; assay: CO-ADD bacterial broth microdilution MIC assay; assay type: cell-based; settings: CAMHB, 37 °C, 18 h, ≥ 80% inhibition
Experimental: as §5, §6, §7, §8

[6] = test system: Staphylococcus aureus ATCC 43300 (MRSA); assay: CO-ADD bacterial broth microdilution MIC assay; assay type: cell-based; settings: CAMHB, 37 °C, 18 h, ≥ 80% inhibition
Experimental: as §5, §6, §7, §8

[7] = test system: Klebsiella pneumoniae ATCC 700603 (K6; ESBL SHV-18); assay type: cell-based; settings: 18 h
Experimental: as §5, §6, §7, §8

[8] = range of MICs, n=8, 35 °C, 36 h, visual

O=[N+]([O-])[O-].O=[N+]([O-])[O-].[Co+2] [Co, Co(NO3)2, reference compound]
MIC Candida albicans ATCC 90028 (C. albicans ATCC 90028): > 29.1 µg/mL | MIC (C. albicans ATCC 90028; [8]): >100 µM | MIC Candida auris CBS 10913 (C. auris CBS 10913): > 29.1 µg/mL | MIC (C. auris CBS 10913; range of MICs, n=8, 35 °C, 36 h, visual, read-out: MIC C. auris CBS 10913): >100 µM | MIC Candida auris CBS 12373 (C. auris CBS 12373): 29.1 µg/mL | MIC (C. auris CBS 12373): 100 µM | MIC Candida glabrata ATCC 90030 (C. glabrata ATCC 90030): > 29.1 µg/mL | MIC (C. glabrata ATCC 90030): >100 µM | MIC Cryptococcus deuterogattii ATCC 32609 [1]: > 29.1 µg/mL | MIC [1, 8]: >100 µM | MIC Cryptococcus deuterogattii CBS 7750 [2]: > 29.1 µg/mL | MIC [2]: >100 µM | MIC Ab (Acinetobacter baumannii ATCC 19606) [3]: > 32 µg/mL | MIC Ec (Escherichia coli ATCC 25922) [4]: > 32 µg/mL | MIC Pa (Pseudomonas aeruginosa ATCC 27853) [5]: > 32 µg/mL | MIC Sa (Staphylococcus aureus ATCC 43300, MRSA) [6]: > 32 µg/mL | MIC Kp (Klebsiella pneumoniae ATCC 700603) ([7]; CAMHB, 37 °C, ≥ 80% inhibition): > 32 µg/mL

CC1=[N+]2N=C(N)[S][Co-3]23([n+]2ccc(N(C)C)cc2)([n+]2ccc(N(C)C)cc2)[S]C(N)=N[N+]3=C1C.O=[N+]([O-])[O-] [Compound 3, [Co(ATS)(DMAP)2]NO3]
MIC Candida albicans ATCC 90028 (C. albicans ATCC 90028): 0.93 µg/mL | MIC (C. albicans ATCC 90028; [8]): 1.56 µM | MIC Candida auris CBS 10913 (C. auris CBS 10913): 0.23 to 0.46 µg/mL | MIC C. auris CBS 10913 (C. auris CBS 10913; [8]): 0.39 to 0.78 µM | MIC Candida auris CBS 12373 (C. auris CBS 12373): 0.46 µg/mL | MIC (C. auris CBS 12373): 0.78 µM | MIC Candida glabrata ATCC 90030 (C. glabrata ATCC 90030): 29.7 µg/mL | MIC (C. glabrata ATCC 90030): 50 µM | MIC Cryptococcus deuterogattii ATCC 32609 [1]: 0.93 to 1.86 µg/mL | MIC C. deuterogattii ATCC 32609 [1, 8]: 1.56 to 3.12 µM | MIC Cryptococcus deuterogattii CBS 7750 [2]: 0.93 µg/mL | MIC [2]: 1.56 µM | MIC Ab (Acinetobacter baumannii ATCC 19606) [3]: > 32 µg/mL | MIC Ec (Escherichia coli ATCC 25922) [4]: > 32 µg/mL | MIC Pa (Pseudomonas aeruginosa ATCC 27853) [5]: > 32 µg/mL | MIC Sa (Staphylococcus aureus ATCC 43300, MRSA) [6]: > 32 µg/mL | MIC Kp (Klebsiella pneumoniae ATCC 700603) [7]: > 32 µg/mL

O=[N+]([O-])[O-].[NH3+][Co-3]123([NH3+])[O]c4c(F)cccc4C=[N+]1c1ccccc1[N+]2=Cc1cccc(F)c1[O]3 [Compound 7, [Co(3F‐salophen)(NH3)2]NO3]
MIC Candida albicans ATCC 90028 (C. albicans ATCC 90028): 23.9 to 47.8 µg/mL | MIC C. albicans ATCC 90028 (C. albicans ATCC 90028; [8]): 50 to 100 µM | MIC Candida auris CBS 10913 (C. auris CBS 10913): 0.37 to 0.75 µg/mL | MIC C. auris CBS 10913, lowest value ('as low as') (C. auris CBS 10913; lower end of MIC range): 0.78 µM | MIC C. auris CBS 10913 (C. auris CBS 10913; [8]): 0.78 to 1.56 µM | MIC Candida auris CBS 12373 (C. auris CBS 12373): 23.9 µg/mL | MIC (C. auris CBS 12373): 50 µM | MIC Candida glabrata ATCC 90030 (C. glabrata ATCC 90030): 47.8 µg/mL | MIC (C. glabrata ATCC 90030): 100 µM | MIC Cryptococcus deuterogattii ATCC 32609 [1]: 47.8 µg/mL | MIC [1, 8]: 100 µM | MIC Cryptococcus deuterogattii CBS 7750 [2]: 47.8 µg/mL | MIC [2]: 100 µM | MIC Ab (Acinetobacter baumannii ATCC 19606) [3]: > 32 µg/mL | MIC Ec (Escherichia coli ATCC 25922) [4]: > 32 µg/mL | MIC Pa (Pseudomonas aeruginosa ATCC 27853) [5]: > 32 µg/mL | MIC Sa (Staphylococcus aureus ATCC 43300, MRSA) [6]: > 32 µg/mL | MIC Kp (Klebsiella pneumoniae ATCC 700603) [7]: > 32 µg/mL

Source: article PMC7855930, “Nontoxic Cobalt(III) Schiff Base Complexes with Broad‐Spectrum Antifungal Activity” (Chemistry (Weinheim an Der Bergstrasse, Germany), 2020)
